Reference: patent US20140309256A1, “Therapeutic Method” (FibroGen, Inc., priority 2011, published 2014)

What was measured:
PHD1 = PHD1 (Homo sapiens, UniProt Q96KS0); assay: HIF prolyl hydroxylase enzyme assay, PHD1; type: biochemical
From the text: (§1) Suitable assay methods are well known in the art.

PHD3 = PHD3 (Homo sapiens, UniProt Q9H6Z9); assay: HIF prolyl hydroxylase enzyme assay, PHD3; type: biochemical
From the text: as §1

[1] = tested on: Human subjects with stage 3 or 4 chronic kidney disease; assay: Hemoglobin levels in chronic kidney disease patients treated orally with Compound A; type: in vivo; conditions: all groups A-D, oral, 16 or 24 weeks; all p<0.0001; dose-dependent
Experimental: No intravenous iron administration was allowed during the treatment, and subjects who had received more than one administration of IV iron within 12 weeks prior to randomization were excluded. […] Treatment was continued for weeks 5 through 16 with dose adjusted every 4 weeks to maintain hemoglobin of 11-13 g/dL (target Hb range). Group A continued dosing three time a week, Group B was switched to twice weekly dosing. Groups C (n=24) received a initial fixed dose of 50 mg, three times a week for 4 weeks and group D (n=24) received an initial fixed dose of 100 mg, three times a week. Treatment was continued for weeks 5 to 24 with dose adjusted to maintain hemoglobin of 10.5-12 g/dL (target Hb range). Hemoglobin and platelet counts were measured every 4 weeks.

[2] = tested on: Human subjects with stage 3 or 4 chronic kidney disease; assay: Platelet counts in chronic kidney disease patients treated orally with Compound A; type: in vivo
Experimental: No intravenous iron administration was allowed during the treatment, and subjects who had received more than one administration of IV iron within 12 weeks prior to randomization were excluded.
Groups A (n=24) and B (n=24) received an initial weight-adjusted dose of 60 mg (for subjects of 40 to 60 kg), 100 mg (for subjects of >60 to 90 kg), or 140 mg (for subjects of >90 to 140 kg), three times a week for 4 weeks. Treatment was continued for weeks 5 through 16 with dose adjusted every 4 weeks to maintain hemoglobin of 11-13 g/dL (target Hb range). Group A continued dosing three time a week, Group B was switched to twice weekly dosing.
Groups C (n=24) received a initial fixed dose of 50 mg, three times a week for 4 weeks and group D (n=24) received an initial fixed dose of 100 mg, three times a week. Treatment was continued for weeks 5 to 24 with dose adjusted to maintain hemoglobin of 10.5-12 g/dL (target Hb range). Hemoglobin and platelet counts were measured every 4 weeks.
In a separate analysis of the data from Example 1, all patient data on platelet count over time was combined and stratified into quartiles based on the baseline platelet count. Each quartile had n=24. Quartile 1 included the 24 patients with the lowest baseline platelet count. Quartile 2 included the 24 patients with the next highest baseline platelet count after the patients in quartile 1. Quartile 3 included the 24 patients with the next highest baseline platelet count after the patients in quartile 2. Quartile 4 included the 24 patients with the highest baseline platelet count.

treated subjects = conditions: treatment of anemia with ESA; cited from earlier work

PHD3, sequence (Q9H6Z9 whole entry): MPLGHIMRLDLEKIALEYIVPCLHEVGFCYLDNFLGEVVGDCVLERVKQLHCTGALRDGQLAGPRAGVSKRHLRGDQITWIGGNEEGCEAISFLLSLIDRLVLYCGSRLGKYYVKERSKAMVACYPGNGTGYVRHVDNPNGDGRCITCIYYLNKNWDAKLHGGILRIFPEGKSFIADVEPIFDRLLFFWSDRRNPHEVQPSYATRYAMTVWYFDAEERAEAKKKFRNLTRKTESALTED
PHD1, sequence (Q96KS0 whole entry): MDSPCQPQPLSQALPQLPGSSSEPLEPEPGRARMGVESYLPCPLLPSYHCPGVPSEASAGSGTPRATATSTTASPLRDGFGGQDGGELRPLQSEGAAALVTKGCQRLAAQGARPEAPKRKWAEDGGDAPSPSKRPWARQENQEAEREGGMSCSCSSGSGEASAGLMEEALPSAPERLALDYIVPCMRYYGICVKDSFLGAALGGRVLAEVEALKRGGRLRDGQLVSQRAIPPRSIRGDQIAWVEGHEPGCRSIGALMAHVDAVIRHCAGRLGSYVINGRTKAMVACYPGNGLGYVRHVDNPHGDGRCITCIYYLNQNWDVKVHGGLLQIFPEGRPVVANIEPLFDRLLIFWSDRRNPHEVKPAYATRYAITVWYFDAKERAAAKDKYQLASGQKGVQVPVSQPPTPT

Row | Molecule | IC50 (PHD1) [µM] | IC50 (PHD3) [µM] | Mean hemoglobin concentrations, end of treatment vs. baseline [1] | Mean platelet count change from baseline to end of treatment ([2]; Group A, weight-adjusted dose three times a week, 16 weeks, baseline 267, p<0.0001) | Mean platelet count change from baseline to end of treatment ([2]; Group B, weight-adjusted dose, switched to twice weekly, 16 weeks, baseline 292, p<0.0001) | Mean platelet count change from baseline to end of treatment ([2]; Group C, initial fixed dose 50 mg three times a week, 24 weeks, baseline 255, p=0.89) | Mean platelet count change from baseline to end of treatment ([2]; Group D, initial fixed dose 100 mg three times a week, 24 weeks, baseline 231, p=0.30) | Mean change in platelet count from baseline to end of treatment, combined groups ([2]; week 17, p<0.0001) | Mean change in platelet count from baseline to end of treatment, combined groups ([2]; week 25, p=0.41) | Platelet count over course of treatment, stratified by baseline quartile ([2]; lower 3 quartiles, mean baseline 164.9, 224.8, 272.2 ×10^9/L) | Platelet count over course of treatment, stratified by baseline quartile ([2]; quartile 4 (highest), mean baseline 388.7×10^9/L) | Effect on platelet count in treated subjects (treated subjects)
1 | Cc1nc(C(=O)NCC(=O)O)c(O)c2ccc(Oc3ccccc3)cc12 [Compound A, [(4-hydroxy-1-methyl-7-phenoxy-isoquinoline-3-carbonyl)-amino]-acetic acid] | 0.2 to 2 | 0.2 to 2 | increased from the baseline | −46.55 1×10^9/L | −43.67 1×10^9/L | −1.69 1×10^9/L | −11.88 1×10^9/L | −30.05 | −6.94 | maintained at (or not significantly increased from) the baseline level | decreased from baseline | –
2 | epoetin beta: erythropoiesis-stimulating agent, recombinant human erythropoietin (rHuEPO) | – | – | – | – | – | – | – | – | – | – | – | increase platelet count
3 | epoetin α: erythropoiesis-stimulating agent, recombinant human erythropoietin (rHuEPO) | – | – | – | – | – | – | – | – | – | – | – | increase platelet count
